Measured values: PMC5858560 (Toxicology and applied pharmacology, 2011)

Legend:
human iPSC-CMs [1] = experiment: Caspase 3/7 cleavage; assay type: cell-based; conditions: for maximal attenuation of caspase 3/7 cleavage: 23 µM sunitinib 24 h
human iPSC-CMs [2] = experiment: LDH release in iCell cardiomyocytes; assay type: cell-based
human iPSC-CMs [3] = experiment: ATP depletion; assay type: cell-based; conditions: for attenuation of sunitinib-mediated ATP depletion: 3 h pretreatment with 1 or 2 mM, then 8 to 31 µM sunitinib for 24 h; for TC50 based on dose–response data for ATP depletion: human iPSC-CMs, 24 h treatment; for depletion of ATP: 31 µM sunitinib
human iPSC-CMs [4] = experiment: Microelectrode array; assay type: cell-based; conditions: MEA; for change of beat rate from baseline: up to 2 mM
pACC-S79, pAMPK-T172 = experiment: Western blot of AMPK/ACC signaling in iCell cardiomyocytes; assay type: cell-based, human; conditions: iPSC-CMs; for phosphorylation status of AMPKα-Thr172 and ACC-Ser79: 1 or 2 mM for 3 h
human iPSC-CMs [5] = experiment: GSH oxidation; assay type: cell-based
human iPSC-CMs [6] = experiment: Cytotoxicity dose response; assay type: cell-based; conditions: for concentration without cytotoxicity (no ATP depletion or LDH release): 4 to 250 µM tested, 24 h
Nav1.5 channel = Nav1.5 channel (Homo sapiens, UniProt Q14524); experiment: PatchXpress Nav1.5 channel assay in CHL-Nav1.5 cells; assay type: cell-based; conditions: read-out: IC50 of Nav1.5 channel inhibition
ROCK2 = ROCK2 (Homo sapiens, UniProt O75116); experiment: KINOMEscan; assay type: binding; conditions: read-out: % Inhibition AMBIT, ROCK2
CDK7 = CDK7 (Homo sapiens, UniProt P50613); experiment: KINOMEscan; assay type: binding; conditions: read-out: % Inhibition AMBIT, CDK7
317 kinases = conditions: at 0.1 µM; ref Karaman et al., 2008; cited from earlier work
DMPK = DMPK (Homo sapiens, UniProt Q09013); experiment: KINOMEscan; assay type: binding; conditions: read-out: % Inhibition AMBIT, DMPK
RSK1/2/4 = experiment: 10 µM AMBIT screen; assay type: binding
RPS6KA6 (Kin. Dom.1) = RPS6KA6 (Kin. Dom.1) (Homo sapiens, UniProt Q9UK32); experiment: KINOMEscan; assay type: binding; conditions: read-out: % Inhibition AMBIT, RPS6KA6 (Kin. Dom.1)
BRAF = BRAF (Homo sapiens, UniProt P15056); experiment: KINOMEscan; assay type: binding; conditions: read-out: % Inhibition AMBIT, BRAF
RPS6KA2 (Kin. Dom.1) = RPS6KA2 (Kin. Dom.1) (Homo sapiens, UniProt Q15349); experiment: KINOMEscan; assay type: binding; conditions: read-out: % Inhibition AMBIT, RPS6KA2 (Kin. Dom.1)
PIM1 = PIM1 (Homo sapiens, UniProt P11309); experiment: KINOMEscan; assay type: binding; conditions: read-out: % Inhibition AMBIT, PIM1
PIM2 = PIM2 (Homo sapiens, UniProt Q9P1W9); experiment: KINOMEscan; assay type: binding; conditions: read-out: % Inhibition AMBIT, PIM2
PDGFR-alpha = PDGFR-alpha (Homo sapiens, UniProt P16234); experiment: KINOMEscan; assay type: binding; conditions: read-out: % Inhibition AMBIT, PDGFR-alpha
GSK3A = GSK3A (Homo sapiens, UniProt P49840); experiment: KINOMEscan; assay type: binding; conditions: read-out: % Inhibition AMBIT, GSK3A
ERBB4 = ERBB4 (Homo sapiens, UniProt Q15303); experiment: KINOMEscan; assay type: binding; conditions: read-out: % Inhibition AMBIT, ERBB4
RPS6KA1 (Kin. Dom.1) = RPS6KA1 (Kin. Dom.1) (Homo sapiens, UniProt Q15418); experiment: KINOMEscan; assay type: binding; conditions: read-out: % Inhibition AMBIT, RPS6KA1 (Kin. Dom.1)
FLT4 = FLT4 (Homo sapiens, UniProt P35916); experiment: KINOMEscan; assay type: binding; conditions: read-out: % Inhibition AMBIT, FLT4
RAF = RAF (Homo sapiens, UniProt P04049); experiment: KINOMEscan; assay type: binding; conditions: read-out: % Inhibition AMBIT, RAF
PLK4 = PLK4 (Homo sapiens, UniProt O00444); experiment: KINOMEscan; assay type: binding; conditions: read-out: % Inhibition AMBIT, PLK4
RPS6KA4 (Kin. Dom.1) = RPS6KA4 (Kin. Dom.1) (Homo sapiens, UniProt O75676); experiment: KINOMEscan; assay type: binding; conditions: read-out: % Inhibition AMBIT, RPS6KA4 (Kin. Dom.1)
RPS6KA4 (Kin. Dom.2) = RPS6KA4 (Kin. Dom.2) (Homo sapiens, UniProt O75676); experiment: KINOMEscan; assay type: binding; conditions: read-out: % Inhibition AMBIT, RPS6KA4 (Kin. Dom.2)
PLK3 = PLK3 (Homo sapiens, UniProt Q9H4B4); experiment: KINOMEscan; assay type: binding; conditions: read-out: % Inhibition AMBIT, PLK3
MAPK/ERK2 = MAPK/ERK2 (Homo sapiens, UniProt P28482); experiment: KINOMEscan; assay type: binding; conditions: read-out: % Inhibition AMBIT, MAPK/ERK2
RPS6KA6 (Kin. Dom.2) = RPS6KA6 (Kin. Dom.2) (Homo sapiens, UniProt Q9UK32); experiment: KINOMEscan; assay type: binding; conditions: read-out: % Inhibition AMBIT, RPS6KA6 (Kin. Dom.2)
PLK1 = PLK1 (Homo sapiens, UniProt P53350); experiment: KINOMEscan; assay type: binding; conditions: read-out: % Inhibition AMBIT, PLK1
FLT1 = FLT1 (Homo sapiens, UniProt P17948); experiment: KINOMEscan; assay type: binding; conditions: read-out: % Inhibition AMBIT, FLT1
PDGFR-beta = PDGFR-beta (Homo sapiens, UniProt P09619); experiment: KINOMEscan; assay type: binding; conditions: read-out: % Inhibition AMBIT, PDGFR-beta
AMPK-alpha2 = AMPK-alpha2 (Homo sapiens, UniProt P54646); experiment: KINOMEscan; assay type: binding; conditions: read-out: % Inhibition AMBIT, AMPK-alpha2
ERBB2 = ERBB2 (Homo sapiens, UniProt P04626); experiment: KINOMEscan; assay type: binding; conditions: read-out: % Inhibition AMBIT, ERBB2
AMPK-alpha1 = AMPK-alpha1 (Homo sapiens, UniProt Q13131); experiment: KINOMEscan; assay type: binding; conditions: read-out: % Inhibition AMBIT, AMP_K-alpha1
RSK1 = conditions: read-out: IC50 RSK1; kinase activity assay; ref Hasinoff et al., 2008; cited from earlier work
AURORA A KINASE = AURORA A KINASE (Homo sapiens, UniProt O14965); experiment: KINOMEscan; assay type: binding; conditions: read-out: % Inhibition AMBIT, AURORA A KINASE
AKT3 = AKT3 (Homo sapiens, UniProt Q9Y243); experiment: KINOMEscan; assay type: binding; conditions: read-out: % Inhibition AMBIT, AKT3
AURORA C KINASE = AURORA C KINASE (Homo sapiens, UniProt Q9UQB9); experiment: KINOMEscan; assay type: binding; conditions: read-out: % Inhibition AMBIT, AURORA C KINASE
AURORA B KINASE = AURORA B KINASE (Homo sapiens, UniProt Q96GD4); experiment: KINOMEscan; assay type: binding; conditions: read-out: % Inhibition AMBIT, AURORA B KINASE
GSK3B = GSK3B (Homo sapiens, UniProt P49841); experiment: KINOMEscan; assay type: binding; conditions: read-out: % Inhibition AMBIT, GSK3B
MAP3K5 (ASK1) = MAP3K5 (ASK1) (Homo sapiens, UniProt Q99683); experiment: KINOMEscan; assay type: binding; conditions: read-out: % Inhibition AMBIT, MAP3K5 (ASK1)
STK11 = STK11 (Homo sapiens, UniProt Q15831); experiment: KINOMEscan; assay type: binding; conditions: read-out: % Inhibition AMBIT, STK11
[7] = 31 µM sunitinib, 24 h, iPSC-CMs
[8] = 23 µM sunitinib, 24 h, iPSC-CMs

STK11, sequence (Q15831 whole entry): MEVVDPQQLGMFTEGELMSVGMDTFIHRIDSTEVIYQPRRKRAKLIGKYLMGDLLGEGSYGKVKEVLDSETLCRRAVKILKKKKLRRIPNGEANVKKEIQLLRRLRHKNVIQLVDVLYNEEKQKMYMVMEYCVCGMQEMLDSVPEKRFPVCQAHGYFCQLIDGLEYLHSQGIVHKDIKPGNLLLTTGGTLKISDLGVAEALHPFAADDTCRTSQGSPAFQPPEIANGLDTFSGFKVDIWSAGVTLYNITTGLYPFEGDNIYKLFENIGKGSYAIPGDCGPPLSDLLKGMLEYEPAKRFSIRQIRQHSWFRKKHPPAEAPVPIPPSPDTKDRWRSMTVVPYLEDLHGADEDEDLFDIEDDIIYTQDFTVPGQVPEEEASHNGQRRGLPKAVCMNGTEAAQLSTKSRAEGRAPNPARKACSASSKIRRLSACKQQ
AURORA C KINASE, sequence (Q9UQB9 whole entry): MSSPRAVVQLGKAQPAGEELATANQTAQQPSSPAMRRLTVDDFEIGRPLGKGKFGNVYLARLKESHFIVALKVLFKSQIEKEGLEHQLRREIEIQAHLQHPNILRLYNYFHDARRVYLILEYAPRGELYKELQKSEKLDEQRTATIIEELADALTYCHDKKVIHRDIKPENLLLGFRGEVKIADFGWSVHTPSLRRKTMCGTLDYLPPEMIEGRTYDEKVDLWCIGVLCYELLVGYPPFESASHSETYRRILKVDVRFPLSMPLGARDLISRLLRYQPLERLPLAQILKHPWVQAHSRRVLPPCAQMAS
MAP3K5 (ASK1), sequence (Q99683 whole entry): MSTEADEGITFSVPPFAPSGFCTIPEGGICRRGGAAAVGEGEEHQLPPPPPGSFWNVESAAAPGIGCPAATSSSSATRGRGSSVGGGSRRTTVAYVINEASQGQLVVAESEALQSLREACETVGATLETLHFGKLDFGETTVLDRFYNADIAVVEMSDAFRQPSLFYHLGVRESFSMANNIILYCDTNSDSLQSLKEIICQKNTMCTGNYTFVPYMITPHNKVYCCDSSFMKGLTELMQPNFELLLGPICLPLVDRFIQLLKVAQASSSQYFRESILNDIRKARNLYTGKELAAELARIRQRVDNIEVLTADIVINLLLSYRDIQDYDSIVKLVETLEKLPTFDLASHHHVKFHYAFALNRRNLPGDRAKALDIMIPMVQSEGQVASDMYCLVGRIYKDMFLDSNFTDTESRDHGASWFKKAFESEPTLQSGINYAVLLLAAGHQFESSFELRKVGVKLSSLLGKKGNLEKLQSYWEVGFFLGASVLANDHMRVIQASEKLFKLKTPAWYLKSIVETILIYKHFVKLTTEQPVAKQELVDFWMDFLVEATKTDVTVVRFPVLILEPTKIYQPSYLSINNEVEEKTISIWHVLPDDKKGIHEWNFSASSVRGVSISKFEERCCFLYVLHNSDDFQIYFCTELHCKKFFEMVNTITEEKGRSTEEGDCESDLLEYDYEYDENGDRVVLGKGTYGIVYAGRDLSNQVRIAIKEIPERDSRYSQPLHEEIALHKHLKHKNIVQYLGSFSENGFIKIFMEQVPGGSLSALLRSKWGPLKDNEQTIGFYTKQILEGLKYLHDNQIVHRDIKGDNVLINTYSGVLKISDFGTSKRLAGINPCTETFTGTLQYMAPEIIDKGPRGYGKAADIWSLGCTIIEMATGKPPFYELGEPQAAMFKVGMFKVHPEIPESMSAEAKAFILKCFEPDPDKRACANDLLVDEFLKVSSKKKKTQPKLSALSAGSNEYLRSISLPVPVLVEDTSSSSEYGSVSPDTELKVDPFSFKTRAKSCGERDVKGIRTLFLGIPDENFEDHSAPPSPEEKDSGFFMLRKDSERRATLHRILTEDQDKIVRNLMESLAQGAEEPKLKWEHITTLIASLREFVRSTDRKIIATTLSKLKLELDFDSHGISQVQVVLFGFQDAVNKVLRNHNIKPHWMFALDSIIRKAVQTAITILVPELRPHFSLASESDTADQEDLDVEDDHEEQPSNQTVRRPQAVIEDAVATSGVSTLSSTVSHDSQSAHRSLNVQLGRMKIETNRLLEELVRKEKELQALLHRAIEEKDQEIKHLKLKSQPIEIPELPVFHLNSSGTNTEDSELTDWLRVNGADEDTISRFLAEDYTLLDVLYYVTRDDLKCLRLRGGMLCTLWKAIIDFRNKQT
PLK1, sequence (P53350 whole entry): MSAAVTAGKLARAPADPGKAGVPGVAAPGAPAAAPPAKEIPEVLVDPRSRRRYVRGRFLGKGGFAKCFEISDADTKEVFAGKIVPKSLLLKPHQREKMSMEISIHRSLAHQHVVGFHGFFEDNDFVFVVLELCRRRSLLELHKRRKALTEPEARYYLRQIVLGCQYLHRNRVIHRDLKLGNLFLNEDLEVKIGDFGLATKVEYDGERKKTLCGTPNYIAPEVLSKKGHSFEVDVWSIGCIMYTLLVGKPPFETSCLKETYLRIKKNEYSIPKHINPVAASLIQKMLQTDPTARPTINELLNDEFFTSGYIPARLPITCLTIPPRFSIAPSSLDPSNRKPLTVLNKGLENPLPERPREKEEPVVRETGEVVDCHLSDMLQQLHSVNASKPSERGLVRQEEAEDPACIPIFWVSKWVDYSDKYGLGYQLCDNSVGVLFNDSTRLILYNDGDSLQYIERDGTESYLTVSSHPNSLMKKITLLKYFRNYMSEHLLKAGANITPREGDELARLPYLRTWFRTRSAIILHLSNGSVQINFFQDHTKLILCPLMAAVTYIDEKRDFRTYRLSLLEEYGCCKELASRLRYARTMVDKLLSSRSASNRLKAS
GSK3B, sequence (P49841 whole entry): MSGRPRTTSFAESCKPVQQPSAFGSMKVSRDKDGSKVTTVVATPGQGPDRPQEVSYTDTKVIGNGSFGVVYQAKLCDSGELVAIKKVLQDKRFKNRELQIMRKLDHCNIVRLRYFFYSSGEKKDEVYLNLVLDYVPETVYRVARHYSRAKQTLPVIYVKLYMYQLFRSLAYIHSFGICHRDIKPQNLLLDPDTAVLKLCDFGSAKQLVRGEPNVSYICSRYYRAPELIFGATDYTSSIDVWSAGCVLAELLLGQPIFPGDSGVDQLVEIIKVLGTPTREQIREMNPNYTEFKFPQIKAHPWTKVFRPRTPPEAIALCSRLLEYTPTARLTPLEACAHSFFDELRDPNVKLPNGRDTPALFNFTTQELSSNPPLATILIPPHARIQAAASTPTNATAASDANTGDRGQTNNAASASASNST
PIM2, sequence (Q9P1W9 whole entry): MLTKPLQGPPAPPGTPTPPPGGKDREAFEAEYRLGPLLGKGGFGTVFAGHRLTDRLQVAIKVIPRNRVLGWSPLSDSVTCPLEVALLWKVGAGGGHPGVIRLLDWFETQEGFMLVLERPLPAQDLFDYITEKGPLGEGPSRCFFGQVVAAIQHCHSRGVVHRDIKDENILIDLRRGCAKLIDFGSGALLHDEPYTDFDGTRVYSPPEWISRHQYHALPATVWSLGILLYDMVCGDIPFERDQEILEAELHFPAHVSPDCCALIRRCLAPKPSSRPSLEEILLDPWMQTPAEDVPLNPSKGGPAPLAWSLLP
FLT1, sequence (P17948 27-1338): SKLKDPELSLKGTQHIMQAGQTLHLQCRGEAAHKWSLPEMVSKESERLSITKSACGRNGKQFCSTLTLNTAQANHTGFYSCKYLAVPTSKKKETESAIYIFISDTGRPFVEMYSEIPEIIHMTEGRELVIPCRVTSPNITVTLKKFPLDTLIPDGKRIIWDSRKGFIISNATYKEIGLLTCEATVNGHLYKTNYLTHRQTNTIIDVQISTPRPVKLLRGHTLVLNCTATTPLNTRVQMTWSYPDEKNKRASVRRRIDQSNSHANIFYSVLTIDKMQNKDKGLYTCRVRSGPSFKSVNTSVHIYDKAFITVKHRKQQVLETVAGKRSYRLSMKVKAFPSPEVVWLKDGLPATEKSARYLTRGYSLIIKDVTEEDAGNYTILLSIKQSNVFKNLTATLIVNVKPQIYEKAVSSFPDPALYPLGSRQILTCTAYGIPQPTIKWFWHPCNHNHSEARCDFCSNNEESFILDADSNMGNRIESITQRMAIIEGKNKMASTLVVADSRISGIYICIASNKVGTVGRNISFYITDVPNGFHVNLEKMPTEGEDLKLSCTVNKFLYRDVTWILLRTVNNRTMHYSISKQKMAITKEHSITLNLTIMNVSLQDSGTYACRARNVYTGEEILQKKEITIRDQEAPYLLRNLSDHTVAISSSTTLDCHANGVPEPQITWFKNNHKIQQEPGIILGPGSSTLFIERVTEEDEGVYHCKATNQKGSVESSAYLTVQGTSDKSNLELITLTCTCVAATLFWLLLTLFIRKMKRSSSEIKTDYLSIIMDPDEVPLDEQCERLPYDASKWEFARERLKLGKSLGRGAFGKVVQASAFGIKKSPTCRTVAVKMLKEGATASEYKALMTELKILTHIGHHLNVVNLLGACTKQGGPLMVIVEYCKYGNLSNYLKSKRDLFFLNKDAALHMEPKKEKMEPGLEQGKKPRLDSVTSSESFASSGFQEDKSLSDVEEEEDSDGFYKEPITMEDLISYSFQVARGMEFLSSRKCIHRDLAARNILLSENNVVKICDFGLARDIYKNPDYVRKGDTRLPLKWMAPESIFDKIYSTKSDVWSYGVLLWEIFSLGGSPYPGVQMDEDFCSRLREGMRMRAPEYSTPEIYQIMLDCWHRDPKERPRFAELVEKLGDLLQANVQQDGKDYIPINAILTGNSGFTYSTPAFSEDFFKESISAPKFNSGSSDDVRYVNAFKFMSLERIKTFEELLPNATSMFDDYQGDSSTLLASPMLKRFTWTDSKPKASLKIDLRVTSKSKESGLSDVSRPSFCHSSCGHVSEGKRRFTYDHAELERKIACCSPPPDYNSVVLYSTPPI
RPS6KA6 (Kin. Dom.2), sequence (Q9UK32 426-683 limits assumed): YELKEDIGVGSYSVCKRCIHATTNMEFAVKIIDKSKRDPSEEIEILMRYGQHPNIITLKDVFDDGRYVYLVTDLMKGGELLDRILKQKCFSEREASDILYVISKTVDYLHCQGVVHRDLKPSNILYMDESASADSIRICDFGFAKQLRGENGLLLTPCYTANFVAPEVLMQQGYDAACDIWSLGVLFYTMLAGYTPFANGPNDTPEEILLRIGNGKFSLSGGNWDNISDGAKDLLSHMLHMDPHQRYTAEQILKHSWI

## NC(=O)c1ncn([C@@H]2O[C@H](CO)[C@@H](O)[C@H]2O)c1N [AICAR, aminoimidazole carboxamide ribonucleotide]
Human iPSC-CMs [1]; 2 mM pretreatment 3 h
  maximal attenuation of caspase 3/7 cleavage: 108%
Human iPSC-CMs [2]; 1 mM pretreatment 3 h, 23 or 31 µM sunitinib 24 h
  reduction of LDH release: 80%
Human iPSC-CMs [3]
  attenuation of sunitinib-mediated ATP depletion: Neither AICAR (Fig. 3A) nor metformin (Fig. 3E) attenuated
Human iPSC-CMs [4]
  change of beat rate from baseline: ≤ 1%
pACC-S79, pAMPK-T172
  phosphorylation status of AMPKα-Thr172 and ACC-Ser79: activated AMPK signaling
Human iPSC-CMs [5]; 1 mM pretreatment 3 h, 31 µM sunitinib 24 h
  attenuation of oxidized GSH: 14%

## COCCNCCCn1c(C(=O)CF)c(-c2ccc(C)cc2)c2c(N)ncnc21 [RSK FMK-MEA, fluoromethylketone methoxyethylamine]
Human iPSC-CMs [3]
  TC50 based on dose–response data for ATP depletion: 250 µM
Human iPSC-CMs [4]; 15 min at each concentration
  concentration with irregular (arrhythmic) beats: 3000 nM
Human iPSC-CMs [4]; serially increasing additions
  amplitude of the Na+-peak: dose-dependent reduction in the amplitude of the Na^+-peak
  fPDc (field-potential duration corrected by beat rate, Fridericia): dose-dependent prolongation of fPDc
Human iPSC-CMs [6]
  concentration without cytotoxicity (no ATP depletion or LDH release): up to 62 µM
Human iPSC-CMs [6]; listed as RSK-FMK-MEA
  concentration without cytotoxicity (no ATP depletion or LDH release): below 250 µM
Nav1.5 channel
  IC50: 56.8 µM

## CN(C)C(=N)N=C(N)N [metformin]
Human iPSC-CMs [1]; 1 mM pretreatment 3 h
  maximal attenuation of caspase 3/7 cleavage: 107%
Human iPSC-CMs [2]; 1 mM pretreatment 3 h, 23 µM sunitinib 24 h
  maximal attenuation of LDH release: 90%
Human iPSC-CMs [3]
  attenuation of sunitinib-mediated ATP depletion: Neither AICAR (Fig. 3A) nor metformin (Fig. 3E) attenuated
Human iPSC-CMs [4]
  change of beat rate from baseline: ≤ 1%
pACC-S79, pAMPK-T172
  phosphorylation status of AMPKα-Thr172 and ACC-Ser79: activated AMPK signaling
Human iPSC-CMs [5]; 2 mM pretreatment 3 h, 23 µM sunitinib 24 h
  reduction in oxidation of GSH: 35%

## CCN(CC)CCNC(=O)c1c(C)[nH]c(/C=C2\C(=O)Nc3ccc(F)cc32)c1C [sunitinib, Sunitinib]
ROCK2
  inhibition at 10 µM: 97%
CDK7
  inhibition at 10 µM: 100%
317 kinases
  number of kinases bound of the 317 kinases tested: 57
  share of the 317 kinases tested that were bound: 18%
DMPK
  inhibition at 10 µM: < 50%
RSK1/2/4
  inhibition of RSK1/2/4: 100%
RPS6KA6 (Kin. Dom.1)
  inhibition at 10 µM: 97%
BRAF
  inhibition at 10 µM: < 50%
Human iPSC-CMs [1]; [7]
  cleavage of caspase 3/7: ~100%
Human iPSC-CMs [2]; [8]
  increase in LDH release compared to vehicle: 300%
Human iPSC-CMs [2]; [7]
  release of LDH: ~100%
RPS6KA2 (Kin. Dom.1)
  inhibition at 10 µM: 100%
PIM1
  inhibition at 10 µM: < 50%
PIM2
  inhibition at 10 µM: < 50%
PDGFR-alpha
  inhibition at 10 µM: 100%
Human iPSC-CMs [3]; [8]
  ATP depleted compared to vehicle: greater than 60%
Human iPSC-CMs [3]; 24 h, iPSC-CMs
  depletion of ATP: ~100%
Human iPSC-CMs [3]; by 4.5 h, iPSC-CMs (unpublished results)
  depletion of ATP: 80%
Human iPSC-CMs [3]
  TC50 based on dose–response data for ATP depletion: 16.7 µM
GSK3A
  inhibition at 10 µM: < 50%
Human iPSC-CMs [4]; serially increasing additions
  amplitude of the Na+-peak: dose-dependently reduced the amplitude of the Na^+-peak
pACC-S79, pAMPK-T172; 15 µM for 2 h
  inhibition of phosphorylation of AMPK's downstream target ACC-Ser79: inhibited AMPK
pACC-S79, pAMPK-T172; 15.6 µM, 2 h
  phosphorylation status of ACC-S79: decreased the phosphorylation status of ACC-S79
ERBB4
  inhibition at 10 µM: < 50%
RPS6KA1 (Kin. Dom.1)
  inhibition at 10 µM: 100%
FLT4
  inhibition at 10 µM: 100%
RAF
  inhibition at 10 µM: < 50%
PLK4
  inhibition at 10 µM: 100%
RPS6KA4 (Kin. Dom.1)
  inhibition at 10 µM: 100%
RPS6KA4 (Kin. Dom.2)
  inhibition at 10 µM: 99%
PLK3
  inhibition at 10 µM: < 50%
MAPK/ERK2
  inhibition at 10 µM: < 50%
RPS6KA6 (Kin. Dom.2)
  inhibition at 10 µM: < 50%
PLK1
  inhibition at 10 µM: < 50%
FLT1
  inhibition at 10 µM: 100%
PDGFR-beta
  inhibition at 10 µM: 100%
AMPK-alpha2
  inhibition at 10 µM: 99%
ERBB2
  inhibition at 10 µM: < 50%
AMPK-alpha1
  inhibition at 10 µM: 100%
RSK1
  IC50: […]
AURORA A KINASE
  inhibition at 10 µM: < 50%
AKT3
  inhibition at 10 µM: < 50%
Human iPSC-CMs [6]
  IC50 of cardiotoxicity (loss of cellular ATP, oxidized glutathione, apoptosis): low micromolar range
AURORA C KINASE
  inhibition at 10 µM: 100%
Human iPSC-CMs [5]; [8]
  GSH oxidized compared to vehicle: 67%
Human iPSC-CMs [5]; [7]
  oxidation of GSH: ~100%
AURORA B KINASE
  inhibition at 10 µM: 100%
GSK3B
  inhibition at 10 µM: < 50%
MAP3K5 (ASK1)
  inhibition at 10 µM: < 50%
STK11
  inhibition at 10 µM: 100%
